Data set [1] deals with RAW264.7. Put plainly: Cytotoxicity against mouse RAW264.7 cells assessed as reduction in cell viability upto 80 uM measured after 24 hrs by MTT assay. The settings on record: raw264.7, 24 h. Format: toxicity, cell-based.
Data set [2] concerns RAW264.7. Put plainly: Anti-inflammatory activity against mouse RAW264.7 cells assessed as inhibition of LPS-induced NO production at 80 uM pre-incubated for 1 hr followed by compound addition and measured after 18 hrs by Griess reagent based analysis. Format: functional, cell-based. The settings on record: time 19.0 hrs.
In data set [3] the test system is RAW264.7. Nature of the data set: Anti-inflammatory activity against mouse RAW264.7 cells assessed as reduction in LPS-induced NO production pre-incubated for 1 hr followed by compound addition and measured after 18 hrs by Griess reagent based analysis. It is filed as functional, cell-based. The note with it: dose 5-80 µM, time 19.0 hrs.
For a further data set, the system named is THP-1. Put plainly: Anti-inflammatory activity against LPS-induced human THP-1 cells assessed as reduction in iNOS protein expression by Western blot analysis. It is filed as functional, cell-based. The note with it: dose 20-80 µM.
The target in data set [4] is T1, Nuclear factor NF-kappa-B complex (Homo sapiens) (UniProt Q00653+P19838+Q04206). Nature of the data set: Inhibition of NFkappaB signaling pathway in LPS-induced human THP-1 cells assessed as reduction in IKKalpha/beta phosphorylation by Western blot analysis. Format: cell-based.
T1 sequence (P19838 whole entry, looked up): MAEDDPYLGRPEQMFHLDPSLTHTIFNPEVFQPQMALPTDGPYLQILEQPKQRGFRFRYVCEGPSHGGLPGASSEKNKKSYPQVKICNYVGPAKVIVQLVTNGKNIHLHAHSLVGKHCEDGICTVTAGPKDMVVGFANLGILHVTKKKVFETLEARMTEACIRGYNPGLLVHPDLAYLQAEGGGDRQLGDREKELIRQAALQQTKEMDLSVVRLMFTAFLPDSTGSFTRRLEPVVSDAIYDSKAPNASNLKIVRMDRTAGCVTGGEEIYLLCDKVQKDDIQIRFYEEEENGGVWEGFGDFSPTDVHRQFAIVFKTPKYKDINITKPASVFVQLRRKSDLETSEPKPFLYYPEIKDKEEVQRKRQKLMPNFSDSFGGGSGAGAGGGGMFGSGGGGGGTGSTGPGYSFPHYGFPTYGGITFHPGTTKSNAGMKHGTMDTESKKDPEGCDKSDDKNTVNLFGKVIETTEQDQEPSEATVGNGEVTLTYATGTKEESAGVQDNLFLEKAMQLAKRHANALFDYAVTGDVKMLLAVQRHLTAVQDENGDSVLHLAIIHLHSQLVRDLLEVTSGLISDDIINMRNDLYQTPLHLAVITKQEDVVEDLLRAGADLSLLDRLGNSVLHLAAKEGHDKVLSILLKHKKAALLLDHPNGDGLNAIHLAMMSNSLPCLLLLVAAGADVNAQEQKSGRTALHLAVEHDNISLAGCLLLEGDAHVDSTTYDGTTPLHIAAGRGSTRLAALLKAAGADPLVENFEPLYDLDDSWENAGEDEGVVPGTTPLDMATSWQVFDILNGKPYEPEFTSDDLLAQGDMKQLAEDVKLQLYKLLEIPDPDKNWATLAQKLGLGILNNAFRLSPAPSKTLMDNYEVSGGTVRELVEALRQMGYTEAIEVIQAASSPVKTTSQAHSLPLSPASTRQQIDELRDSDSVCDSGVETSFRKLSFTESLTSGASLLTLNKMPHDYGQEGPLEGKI
T1 sequence (Q00653 whole entry, looked up): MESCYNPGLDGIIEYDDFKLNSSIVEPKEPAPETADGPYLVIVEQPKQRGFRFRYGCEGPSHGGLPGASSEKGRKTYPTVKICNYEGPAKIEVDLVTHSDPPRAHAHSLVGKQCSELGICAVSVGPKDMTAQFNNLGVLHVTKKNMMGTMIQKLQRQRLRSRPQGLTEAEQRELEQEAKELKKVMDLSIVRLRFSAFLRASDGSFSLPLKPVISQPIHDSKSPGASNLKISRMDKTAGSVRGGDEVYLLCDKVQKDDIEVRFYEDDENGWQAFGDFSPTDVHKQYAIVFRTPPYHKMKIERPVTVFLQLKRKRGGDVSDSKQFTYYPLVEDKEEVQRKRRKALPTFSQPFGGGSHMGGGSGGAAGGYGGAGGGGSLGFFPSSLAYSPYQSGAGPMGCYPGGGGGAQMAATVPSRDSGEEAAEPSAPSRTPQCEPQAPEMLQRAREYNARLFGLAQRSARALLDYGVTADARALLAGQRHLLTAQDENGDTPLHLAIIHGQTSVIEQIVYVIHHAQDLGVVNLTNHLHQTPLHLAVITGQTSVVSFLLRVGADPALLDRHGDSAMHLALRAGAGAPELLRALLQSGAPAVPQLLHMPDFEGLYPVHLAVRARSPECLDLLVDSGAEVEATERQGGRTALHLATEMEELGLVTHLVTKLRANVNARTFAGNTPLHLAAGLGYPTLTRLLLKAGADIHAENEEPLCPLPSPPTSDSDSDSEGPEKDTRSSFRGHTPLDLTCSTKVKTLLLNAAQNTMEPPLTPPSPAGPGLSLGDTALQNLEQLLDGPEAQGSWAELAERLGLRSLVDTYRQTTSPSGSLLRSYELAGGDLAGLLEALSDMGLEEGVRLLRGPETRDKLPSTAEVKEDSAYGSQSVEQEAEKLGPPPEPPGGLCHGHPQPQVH
T1 sequence (Q04206 whole entry, looked up): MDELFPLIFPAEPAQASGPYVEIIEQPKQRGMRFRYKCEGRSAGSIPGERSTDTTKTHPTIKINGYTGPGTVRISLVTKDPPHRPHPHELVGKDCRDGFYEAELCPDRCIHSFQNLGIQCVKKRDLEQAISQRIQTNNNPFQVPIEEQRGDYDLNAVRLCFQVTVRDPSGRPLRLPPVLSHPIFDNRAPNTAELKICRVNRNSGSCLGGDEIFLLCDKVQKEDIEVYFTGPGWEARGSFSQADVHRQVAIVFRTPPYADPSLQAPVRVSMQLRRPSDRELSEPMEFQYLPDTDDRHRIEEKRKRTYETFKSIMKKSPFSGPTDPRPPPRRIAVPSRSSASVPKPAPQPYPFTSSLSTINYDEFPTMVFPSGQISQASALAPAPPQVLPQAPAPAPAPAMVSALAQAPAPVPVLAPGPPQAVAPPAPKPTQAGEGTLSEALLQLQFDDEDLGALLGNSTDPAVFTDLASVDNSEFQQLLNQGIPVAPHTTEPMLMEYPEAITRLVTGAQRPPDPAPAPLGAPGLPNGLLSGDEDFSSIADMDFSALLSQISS
In data set [5] the target is T1, Nuclear factor NF-kappa-B complex (Homo sapiens). Nature of the data set: Inhibition of NFkappaB signaling pathway in LPS-induced human THP-1 cells assessed as reduction in IkappaBalpha phosphorylation by Western blot analysis. Format: cell-based.
The target is the same in data set [6]. Nature of the data set: Inhibition of NFkappaB signaling pathway in LPS-induced human THP-1 cells assessed as reduction in p65 phosphorylation by Western blot analysis. Format: cell-based.

Calls of active or inactive are those of the source. No cut-off for these calls is given here.

For `C[C@](O)(CO)[C@@H]1CC[C@@](C)([C@@H]2CC=C(C(=O)O)CC2)O1`, the Activity result in the data set with RAW264.7 [1] was “Non-Toxic”; in the data set with RAW264.7 [3], “Dose-Dependent Effect”; in the data set on THP-1 it was “Dose-Dependent Effect”. The result with RAW264.7 [2] was Active. Further, the inhibition result in data set [4], in data set [5] and in data set [6] was “Active” in each case.

The record behind these values is ChEMBL document CHEMBL5325450, “Bisabolane-Type Sesquiterpenoids with a Tetrahydrofuran or Tetrahydropyran Ring from Vernonia solanifolia” (J Nat Prod, 2023).
